Reference: paper PMC7034945 (RSC Advances, 2019)

Tested on: HIV-1 NL4-3 virus
Assay: Anti-HIV-1 activity, multicycle assay with HIV-1 NL4-3 in TZM-bl cells
Format: cell-based
Settings: for EC50: Human immunodeficiency virus 1, NL43, TZM-bl; for SI (selectivity index, ratio of CC50/EC50) / anti-HIV-1 activity (in words): TZM-bl cells; for anti-HIV-1 activity (in words): at the test concentration

EC50 [µM]	SMILES	SI (selectivity index, ratio of CC50/EC50) (Table 1)	anti-HIV-1 activity (in words)	SI (selectivity index, ratio of CC50/EC50) (Table 2)
> 35.5	COc1ccc(N(C)C(=O)[C@H](Cc2cc(F)cc(F)c2)NC(=O)c2cccc(-c3cn(Cc4ccccc4[N+](=O)[O-])nn3)c2)cc1 [II-10a, (S)-N-(3-(3,5-Difluorophenyl)-1-((4-methoxyphenyl)(methyl)amino)-1-oxopropan-2-yl)-3-(1-(2-nitrobenzyl)-1H-1,2,3-triazol-4-yl)benzamide]			
> 35.5	COc1ccc(N(C)C(=O)[C@H](Cc2cc(F)cc(F)c2)NC(=O)c2cccc(-c3cn(Cc4cccc([N+](=O)[O-])c4)nn3)c2)cc1 [II-10b, (S)-N-(3-(3,5-Difluorophenyl)-1-((4-methoxyphenyl)(methyl)amino)-1-oxopropan-2-yl)-3-(1-(3-nitrobenzyl)-1H-1,2,3-triazol-4-yl)benzamide]			
23.4 ± 6.88	COc1ccc(N(C)C(=O)[C@H](Cc2cc(F)cc(F)c2)NC(=O)c2cccc(-c3cn(Cc4ccc(C(N)=O)cc4)nn3)c2)cc1 [II-10d, (S)-3-(1-(4-Carbamoylbenzyl)-1H-1,2,3-triazol-4-yl)-N-(3-(3,5-difluorophenyl)-1-((4-methoxyphenyl)(methyl)amino)-1-oxopropan-2-yl)benzamide]		exhibited anti-HIV-1 activity at the test concentration	>1.37
8.16 ± 2.56	COc1ccc(N(C)C(=O)[C@H](Cc2cc(F)cc(F)c2)NC(=O)c2cccc(-c3cn(CC(=O)Nc4ccccc4)nn3)c2)cc1 [II-10e, (S)-N-(3-(3,5-Difluorophenyl)-1-((4-methoxyphenyl)(methyl)amino)-1-oxopropan-2-yl)-3-(1-(2-oxo-2-(phenylamino)ethyl)-1H-1,2,3-triazol-4-yl)benzamide]		exhibited anti-HIV-1 activity at the test concentration	>3.92
> 30.3	COc1ccc(N(C)C(=O)[C@H](Cc2cc(F)cc(F)c2)NC(=O)c2cccc(-c3cn(Cc4ccc(S(N)(=O)=O)cc4)nn3)c2)cc1 [II-10f, (S)-N-(3-(3,5-Difluorophenyl)-1-((4-methoxyphenyl)(methyl)amino)-1-oxopropan-2-yl)-3-(1-(4-sulfamoylbenzyl)-1H-1,2,3-triazol-4-yl)benzamide]			
> 32.8	COc1ccc(N(C)C(=O)[C@H](Cc2cc(F)cc(F)c2)NC(=O)c2cccc(-c3cn(CCCc4ccccc4)nn3)c2)cc1 [II-10g, (S)-N-(3-(3,5-Difluorophenyl)-1-((4-methoxyphenyl)(methyl)amino)-1-oxopropan-2-yl)-3-(1-(3-phenylpropyl)-1H-1,2,3-triazol-4-yl)benzamide]			
7.48 ± 2.83	COc1ccc(N(C)C(=O)[C@H](Cc2cc(F)cc(F)c2)NC(=O)c2cccc(-c3cn(CCc4ccsc4)nn3)c2)cc1 [II-10h, (S)-N-(3-(3,5-Difluorophenyl)-1-((4-methoxyphenyl)(methyl)amino)-1-oxopropan-2-yl)-3-(1-(2-(thiophen-3-yl)ethyl)-1H-1,2,3-triazol-4-yl)benzamide]		exhibited anti-HIV-1 activity at the test concentration	>4.44
> 31.7	COc1ccc(N(C)C(=O)[C@H](Cc2cc(F)cc(F)c2)NC(=O)c2cccc(-c3cn(Cc4ccc5ccccc5c4)nn3)c2)cc1 [II-10j, (S)-N-(3-(3,5-Difluorophenyl)-1-((4-methoxyphenyl)(methyl)amino)-1-oxopropan-2-yl)-3-(1-(naphthalen-2-ylmethyl)-1H-1,2,3-triazol-4-yl)benzamide]			
> 31.7	COc1ccc(N(C)C(=O)[C@H](Cc2cc(F)cc(F)c2)NC(=O)c2cccc(-c3cn(Cc4cccc5ccccc45)nn3)c2)cc1 [II-10k, (S)-N-(3-(3,5-Difluorophenyl)-1-((4-methoxyphenyl)(methyl)amino)-1-oxopropan-2-yl)-3-(1-(naphthalen-1-ylmethyl)-1H-1,2,3-triazol-4-yl)benzamide]			
> 33.8	COC(=O)CCCn1cc(-c2cccc(C(=O)N[C@@H](Cc3cc(F)cc(F)c3)C(=O)N(C)c3ccc(OC)cc3)c2)nn1 [II-10n, Methyl (S)-4-(4-(3-((3-(3,5-difluorophenyl)-1-((4-methoxyphenyl)(methyl)amino)-1-oxopropan-2-yl)carbamoyl)phenyl)-1H-1,2,3-triazol-1-yl)butanoate]		lost anti-HIV-1 activity completely	
> 33.9	COc1ccc(N(C)C(=O)[C@H](Cc2ccccc2)NC(=O)c2cccc(-c3cn(Cc4ccccc4[N+](=O)[O-])nn3)c2)cc1 [III-15a, (S)-N-(1-((4-Methoxyphenyl)(methyl)amino)-1-oxo-3-phenylpropan-2-yl)-3-(1-(2-nitrobenzyl)-1H-1,2,3-triazol-4-yl)benzamide]			
> 33.9	COc1ccc(N(C)C(=O)[C@H](Cc2ccccc2)NC(=O)c2cccc(-c3cn(Cc4cccc([N+](=O)[O-])c4)nn3)c2)cc1 [III-15b, (S)-N-(1-((4-Methoxyphenyl)(methyl)amino)-1-oxo-3-phenylpropan-2-yl)-3-(1-(3-nitrobenzyl)-1H-1,2,3-triazol-4-yl)benzamide]			
> 33.9	COc1ccc(N(C)C(=O)[C@H](Cc2ccccc2)NC(=O)c2cccc(-c3cn(Cc4ccc([N+](=O)[O-])cc4)nn3)c2)cc1 [III-15c, (S)-N-(1-((4-Methoxyphenyl)(methyl)amino)-1-oxo-3-phenylpropan-2-yl)-3-(1-(4-nitrobenzyl)-1H-1,2,3-triazol-4-yl)benzamide]			
26.2 ± 7.3	COc1ccc(N(C)C(=O)[C@H](Cc2ccccc2)NC(=O)c2cccc(-c3cn(Cc4ccc(C(N)=O)cc4)nn3)c2)cc1 [III-15d, (S)-3-(1-(4-Carbamoylbenzyl)-1H-1,2,3-triazol-4-yl)-N-(1-((4-methoxyphenyl)(methyl)amino)-1-oxo-3-phenylpropan-2-yl)benzamide]		exhibited anti-HIV-1 activity at the test concentration	>1.30
> 34	COc1ccc(N(C)C(=O)[C@H](Cc2ccccc2)NC(=O)c2cccc(-c3cn(CC(=O)Nc4ccccc4)nn3)c2)cc1 [III-15e, (S)-N-(1-((4-Methoxyphenyl)(methyl)amino)-1-oxo-3-phenylpropan-2-yl)-3-(1-(2-oxo-2-(phenylamino)ethyl)-1H-1,2,3-triazol-4-yl)benzamide]			

Second part, the molecule before the results:

SMILES	EC50 [µM]	SI (selectivity index, ratio of CC50/EC50) (Table 1)	anti-HIV-1 activity (in words)	SI (selectivity index, ratio of CC50/EC50) (Table 2)
COc1ccc(N(C)C(=O)[C@H](Cc2cc(F)cc(F)c2)NC(=O)c2cn(Cc3cccc([N+](=O)[O-])c3)nn2)cc1 [I-8k, (S)-N-(3-(3,5-Difluorophenyl)-1-((4-methoxyphenyl)(methyl)amino)-1-oxopropan-2-yl)-1-(3-nitrobenzyl)-1H-1,2,3-triazole-4-carboxamide]	10 ± 1.76			
COc1ccc(N(C)C(=O)[C@H](Cc2cc(F)cc(F)c2)NC(=O)c2cn(Cc3ccc([N+](=O)[O-])cc3)nn2)cc1 [I-8l, (S)-N-(3-(3,5-Difluorophenyl)-1-((4-methoxyphenyl)(methyl)amino)-1-oxopropan-2-yl)-1-(4-nitrobenzyl)-1H-1,2,3-triazole-4-carboxamide]	9.26 ± 2.54	>1.96		
COc1ccc(N(C)C(=O)[C@H](Cc2cc(F)cc(F)c2)NC(=O)c2cn(Cc3cccc4ccccc34)nn2)cc1 [I-8m, (S)-N-(3-(3,5-Difluorophenyl)-1-((4-methoxyphenyl)(methyl)amino)-1-oxopropan-2-yl)-1-(naphthalen-1-ylmethyl)-1H-1,2,3-triazole-4-carboxamide]	14.8 ± 3.24	>1.22		
COc1ccc(N(C)C(=O)[C@H](Cc2cc(F)cc(F)c2)NC(=O)c2cn(Cc3ccc4ccccc4c3)nn2)cc1 [I-8n, (S)-N-(3-(3,5-Difluorophenyl)-1-((4-methoxyphenyl)(methyl)amino)-1-oxopropan-2-yl)-1-(naphthalen-2-ylmethyl)-1H-1,2,3-triazole-4-carboxamide]	14.6 ± 2.34	>1.23		
COc1ccc(N(C)C(=O)[C@H](Cc2cc(F)cc(F)c2)NC(=O)c2cn(-c3ccc4c(c3)OCO4)nn2)cc1 [I-8q, (S)-1-(Benzo[d][1,3]dioxol-5-yl)-N-(3-(3,5-difluorophenyl)-1-((4-methoxyphenyl)(methyl)amino)-1-oxopropan-2-yl)-1H-1,2,3-triazole-4-carboxamide]	9.15 ± 2.8	>2.04		
COc1ccc(N(C)C(=O)[C@H](Cc2cc(F)cc(F)c2)NC(=O)c2cn(Cc3ccc(S(N)(=O)=O)cc3)nn2)cc1 [I-8r, (S)-N-(3-(3,5-Difluorophenyl)-1-((4-methoxyphenyl)(methyl)amino)-1-oxopropan-2-yl)-1-(4-sulfamoylbenzyl)-1H-1,2,3-triazole-4-carboxamide]	12.3 ± 2.39	>1.39		
COc1ccc(N(C)C(=O)[C@H](Cc2cc(F)cc(F)c2)NC(=O)c2cn(Cc3ccc(C(N)=O)cc3)nn2)cc1 [I-8s, (S)-1-(4-Carbamoylbenzyl)-N-(3-(3,5-difluorophenyl)-1-((4-methoxyphenyl)(methyl)amino)-1-oxopropan-2-yl)-1H-1,2,3-triazole-4-carboxamide]	11.1 ± 2	>1.64		
COc1ccc(N(C)C(=O)[C@H](Cc2cc(F)cc(F)c2)NC(=O)c2cn(CS(=O)(=O)c3ccccc3)nn2)cc1 [I-8t, (S)-N-(3-(3,5-Difluorophenyl)-1-((4-methoxyphenyl)(methyl)amino)-1-oxopropan-2-yl)-1-((phenylsulfonyl)methyl)-1H-1,2,3-triazole-4-carboxamide]	4.21 ± 0.9	>4.17		
COC(=O)Cn1cc(-c2cccc(C(=O)N[C@@H](Cc3cc(F)cc(F)c3)C(=O)N(C)c3ccc(OC)cc3)c2)nn1 [II-10l, Methyl (S)-2-(4-(3-((3-(3,5-difluorophenyl)-1-((4-methoxyphenyl)(methyl)amino)-1-oxopropan-2-yl)carbamoyl)phenyl)-1H-1,2,3-triazol-1-yl)acetate]			lost anti-HIV-1 activity completely	
CCOC(=O)Cn1cc(-c2cccc(C(=O)N[C@@H](Cc3cc(F)cc(F)c3)C(=O)N(C)c3ccc(OC)cc3)c2)nn1 [II-10m, Ethyl (S)-2-(4-(3-((3-(3,5-difluorophenyl)-1-((4-methoxyphenyl)(methyl)amino)-1-oxopropan-2-yl)carbamoyl)phenyl)-1H-1,2,3-triazol-1-yl)acetate]			lost anti-HIV-1 activity completely	
